In patent publication US20240158348A1, “HERBICIDAL CYCLIC AMIDES N-SUBSTITUTED WITH A HALOALKYLSULFONYLANILIDE GROUP” (FMC Corporation, priority 2021, published 2024):

Assays:
[1] = test system: blackgrass (Alopecurus myosuroides); assay: Test A preemergence, blackgrass; type: in vivo; conditions: 0 to 100 scale, 10 days
Description: (§1) Seeds of plant species selected from barnyardgrass (Echinochloa crus-galli), blackgrass (Alopecurus myosuroides), corn (Zea mays), foxtail, giant (giant foxtail, Setaria faberi), goosegrass (Eleusine indica), kochia (Bassia scoparia), oat, wild (wild oat, Avena fatua), pigweed, palmer (palmer amaranth, Amaranthus palmeri), pigweed, redroot (redroot pigweed, Amaranthus retroflexus), ragweed (common ragweed, Ambrosia artemisiifolia), ryegrass, Italian (Italian ryegrass, Lolium multiflorum), soybean (Glycine max), and wheat (Triticum aestivum) were planted into a blend of loam soil and sand and treated preemergence with a directed soil spray using test chemicals formulated in a non-phytotoxic solvent mixture which included a surfactant.
(§2) At the same time, plants selected from these crop and weed species and also galium (catchweed bedstraw, Galium aparine) and horseweed (Erigeron canadensis) were planted in pots containing the same blend of loam soil and sand and treated with postemergence applications of test chemicals formulated in the same manner. Plants ranged in height from 2 to 10 cm and were in the one- to two-leaf stage for the postemergence treatment. Treated plants and untreated controls were maintained in a greenhouse for 10 days, after which time all treated plants were compared to untreated controls and visually evaluated for injury. Plant response ratings, summarized in Table A, are based on a 0 to 100 scale where 0 is no effect and 100 is complete control. A dash (-) response means no test result.

[2] = test system: oat, wild (wild oat, Avena fatua); assay: Test A postemergence, wild oat; type: in vivo; conditions: 0 to 100 scale, 10 days
Description: as §1, §2

[3] = test system: ryegrass, Italian (Italian ryegrass, Lolium multiflorum); assay: Test A preemergence, Italian ryegrass; type: in vivo; conditions: pre-emergence, 240 h, 0 to 100 scale, 10 days, read-out: Plant response rating, Ryegrass, Italian; for pest or weed control at 31 g/ha: 31 g ai/ha; for pest or weed control at 125 g/ha: 125 g ai/ha
Description: as §1, §2

[4] = test system: barnyardgrass (Echinochloa crusgalli); assay: Test B flooded paddy test, barnyardgrass; type: in vivo; conditions: Echinochloa crus-galli; 250 g ai/ha, Flood; scale of 0 to 100 where 0 is no effect and 100 is complete control; visually evaluated after 10 to 14 days; read-out: Plant response rating, Barnyardgrass
Experimental: Plant species in the flooded paddy test selected from barnyardgrass (Echinochloa crusgalli), ducksalad (Heteranthera limosa), rice (Oryza sativa), and sedge, umbrella (small-flower umbrella sedge, Cyperus difformis) were grown to the 2-leaf stage for testing. At time of treatment, test pots were flooded to 3 cm above the soil surface, treated by application of test compounds directly to the paddy water, and then maintained at that water depth for the duration of the test. Treated plants and controls were maintained in a greenhouse for 10 to 14 days, after which time all species were compared to controls and visually evaluated. Plant response ratings, summarized in Table B, are based on a scale of 0 to 100 where 0 is no effect and 100 is complete control. A dash (-) response means no test result.

[5] = test system: ryegrass, Italian (Italian ryegrass, Lolium multiflorum); assay: Test A postemergence, Italian ryegrass; type: in vivo; conditions: post-emergence, 240 h, 0 to 100 scale, 10 days, read-out: Plant response rating, Ryegrass, Italian; for pest or weed control at 31 g/ha: 31 g ai/ha; for pest or weed control at 125 g/ha: 125 g ai/ha
Description: as §1, §2

[6] = test system: blackgrass (Alopecurus myosuroides); assay: Test C preemergence, blackgrass; type: in vivo; conditions: 0 is no effect, 100 is complete control
How it was run: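 Greenhouse pot test. Compounds in a non-phytotoxic solvent with surfactant were applied to a loam–sand soil mix either preemergence as a directed spray or postemergence to plants at the one- to two-leaf stage; 0–100 visual ratings followed after 10 or 12 days.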

corn (Zea mays) = assay: Test C postemergence, corn; type: in vivo; conditions: for Corn plant response rating: 31 g ai/ha Postemergence, visual injury, 0 to 100 scale (0 no effect, 100 complete control); for Plant response rating (0 to 100 scale), Corn: 125 g ai/ha Postemergence, 0 is no effect, 100 is complete control
[7] = test system: blackgrass (Alopecurus myosuroides); assay: Test C postemergence, blackgrass; type: in vivo; conditions: 125 g ai/ha Postemergence; 0 is no effect, 100 is complete control
soybean (Glycine max) = assay: Test C postemergence, soybean; type: in vivo; conditions: for Soybean plant response rating: visual injury, 0 to 100 scale (0 no effect, 100 complete control); for Plant response rating (0 to 100 scale), Soybean: 0 is no effect, 100 is complete control

melting point [°C] | SMILES | Plant response rating, Blackgrass ([1]; 31 g ai/ha) | Plant response rating, Blackgrass ([1]; 125 g ai/ha) | Plant response rating, Oat, Wild ([2]; 31 g ai/ha) | Plant response rating, Oat, Wild ([2]; 125 g ai/ha) | pest or weed control at 31 g/ha [3] [%] | pest or weed control at 125 g/ha [3] [%] | pest or weed control at 250 g/ha [4] [%] | pest or weed control at 31 g/ha [5] [%] | pest or weed control at 125 g/ha [5] [%] | Plant response rating (0 to 100 scale), Blackgrass ([6]; 31 g ai/ha Preemergence) | Plant response rating (0 to 100 scale), Blackgrass ([6]; 125 g ai/ha Preemergence) | Corn plant response rating (corn (Zea mays)) | Plant response rating (0 to 100 scale), Corn (corn (Zea mays)) | Plant response rating (0 to 100 scale), Blackgrass [7] | Soybean plant response rating (soybean (Glycine max); 31 g ai/ha Postemergence) | Plant response rating (0 to 100 scale), Soybean (soybean (Glycine max); 125 g ai/ha Postemergence) | Soybean plant response rating (soybean (Glycine max); 125 g ai/ha Postemergence)
– | Cc1cc(C)c(N2CCC(OC3CCCC3)C2=O)cc1NS(=O)(=O)C(F)(F)F (stereo not drawn) [Compound 6, N-[5-[3-(cyclopentyloxy)-2-oxo-1-pyrrolidinyl]-2,4-dimethylphenyl]-1,1,1-trifluoromethanesulfonamide] | 50 | 90 | 0 | 20 | 80 | 90 | 30 | 0 | 50 | – | – | – | – | – | – | – | –
201 to 204 | CCO/N=C1\CCN(c2cc(NS(=O)(=O)C(F)(F)F)c(C)cc2C)C1=O [Compound 12, N-[5-[3-(ethoxyimino)-2-oxo-1-pyrrolidinyl]-2,4-dimethylphenyl]-1,1,1-trifluoromethanesulfonamide] | – | – | – | – | – | – | – | – | – | 80 | 100 | 100 | 100 | 100 | 100 | 100 | –
– | Cc1cc(C)c(N(COC(=O)C(C)(C)C)S(=O)(=O)C(F)(F)F)cc1N1CCC(OC2CCC2)C1=O (stereo not drawn) [Compound 8, [[5-[3-(cyclobutyloxy)-2-oxo-1-pyrrolidinyl]-2,4-dimethylphenyl][(trifluoromethyl)sulfonyl]amino]methyl 2,2-dimethylpropanoate] | 30 | 70 | 10 | 30 | 50 | 90 | 98 | 40 | 100 | – | – | – | – | – | – | – | –
– | CCCC(=O)OCN(c1cc(N2CCC(OC3CC3)C2=O)c(C)cc1C)S(=O)(=O)C(F)(F)F (stereo not drawn) [Compound 20] | – | – | – | – | – | – | – | – | – | 80 | 100 | 90 | 90 | 90 | 60 | 70 | –
– | CC(=O)N(c1cc(N2CCC(OC3CC3)C2=O)c(C)cc1C)S(=O)(=O)C(F)(F)F (stereo not drawn) [Compound 17] | – | – | – | – | – | – | – | – | – | 80 | 90 | 90 | 90 | 80 | 60 | 80 | –
– | Cc1c(NS(=O)(=O)C(F)(F)F)cc(N2CCC(OC3CC3)C2=O)c(C)c1F (stereo not drawn) [Compound 26] | – | – | – | – | – | – | – | – | – | 70 | 90 | 50 | 90 | 90 | 70 | – | 100
– | Cc1cc(C)c(N2CCC(O)C2=O)cc1NS(=O)(=O)C(F)(F)F (stereo not drawn) [Compound 14] | – | – | – | – | – | – | – | – | – | 60 | 90 | 70 | 90 | 70 | 80 | 80 | –
– | CC(=O)N(c1cc(N2CCC(OC3CC3)C2=O)c(C)cc1Cl)S(=O)(=O)C(F)(F)F (stereo not drawn) [Compound 38] | – | – | – | – | – | – | – | – | – | 80 | 90 | 80 | 90 | 70 | 70 | – | 80
– | Cc1c(N2CCC(OC3CCC3)C2=O)cc(N(COC(=O)C(C)(C)C)S(=O)(=O)C(F)(F)F)c(C)c1F (stereo not drawn) [Compound 28] | – | – | – | – | – | – | – | – | – | 50 | 60 | 10 | 30 | 70 | 50 | – | 60
– | Cc1c(NS(=O)(=O)C(F)(F)F)cc(N2CCCC(OC3CC3)C2=O)c(C)c1F (stereo not drawn) [Compound 35] | – | – | – | – | – | – | – | – | – | 70 | 100 | 50 | 90 | 60 | 60 | – | 60
184 to 187 | C=CCO/N=C1\CCN(c2cc(NS(=O)(=O)C(F)(F)F)c(C)cc2C)C1=O [Compound 11] | – | – | – | – | – | – | – | – | – | 60 | 100 | 90 | 100 | 90 | 100 | 100 | –
– | Cc1cc(C)c(N(COC(=O)C(C)(C)C)S(=O)(=O)C(F)(F)F)cc1N1CCC(OC2CC2)C1=O (stereo not drawn) [Compound 7, [[5-[3-(cyclopropyloxy)-2-oxo-1-pyrrolidinyl]-2,4-dimethylphenyl][(trifluoromethyl)sulfonyl]amino]methyl 2,2-dimethylpropanoate] | 30 | 80 | 30 | 70 | 100 | 100 | 98 | 50 | 90 | – | – | – | – | – | – | – | –
– | Cc1cc(C)c(N2CCC(OCC3CC3)C2=O)cc1NS(=O)(=O)C(F)(F)F (stereo not drawn) [Compound 22] | – | – | – | – | – | – | – | – | – | 50 | 90 | 50 | 90 | 90 | 60 | 70 | –
– | Cc1cc(C)c(N2CCC(OC3CC3)C2=O)cc1NS(=O)(=O)C(F)(F)F (single isomer, unassigned) [Compound 30] | – | – | – | – | – | – | – | – | – | 80 | 100 | 90 | 90 | 90 | 50 | – | 60
175 to 178 | C#CCO/N=C1\CCN(c2cc(NS(=O)(=O)C(F)(F)F)c(C)cc2C)C1=O [Compound 13, N-[2,4-dimethyl-5-[2-oxo-3-[(2-propyn-1-yloxy)imino]-1-pyrrolidinyl]phenyl]-1,1,1-trifluoromethanesulfonamide] | – | – | – | – | – | – | – | – | – | 90 | 100 | 100 | 100 | 90 | 100 | 100 | –
213 to 216 | Cc1cc(C)c(N2CC/C(=N\O)C2=O)cc1NS(=O)(=O)C(F)(F)F [Compound 10, 1,1,1-trifluoro-N-[5-[3-(hydroxyimino)-2-oxo-1-pyrrolidinyl]-2,4-dimethylphenyl]methanesulfonamide] | – | – | – | – | – | – | – | – | – | – | – | 90 | 90 | 90 | 80 | 80 | –
– | Cc1cc(C)c(N(COC(=O)C(C)(C)C)S(=O)(=O)C(F)(F)F)cc1N1CCC(OC2CCCC2)C1=O (stereo not drawn) [Compound 5, [[5-[3-(cyclopentyloxy)-2-oxo-1-pyrrolidinyl]-2,4-dimethylphenyl][(trifluoromethyl)sulfonyl]amino]methyl 2,2-dimethylpropanoate] | 0 | 40 | 20 | 30 | 20 | 90 | 95 | 20 | 40 | – | – | – | – | – | – | – | –
